One assay relates to murine P388 cell line. The experiment in a line: In vitro cell-based cytotoxicity: proliferation inhibition, XTT tetrazolium assay. As to conditions: P388 cells, 72 h at 37° C., XTT absorbance at 450 nm, read-out: IC50 (drug concentration required to inhibit cell proliferation to 50% of untreated control cells). As to the method:
In Vitro Cell-Based Cytotoxicity Activity
The proliferation inhibition activity against murine P388 cell line was measured as follows. Evaluation of a soluble tetrazolium/formazan assay for cell growth and drug sensitivity in culture, using human and other tumor cell lines, was done according to the procedure described in Cancer Res. 1988, 48, 4827-4833. Cells were plated at 4000 cells/well in 96 well microtiter plates and 24 h later drugs were added and serially diluted. The cells were incubated at 37° C. for 72 h, at which time a tetrazolium dye, XTT, containing phenazine methosulfate was added. A dehydrogenase enzyme in live cells reduced the XTT to a form that absorbs light at 450 nm, which could be quantitated spectrophotometrically. The greater the absorbance the greater the number of live cells. The results are expressed as an IC50, which is the drug concentration required to inhibit cell proliferation (i.e., absorbance at 450 nm) to 50% of that of untreated control cells.
Background: Tetrazolium assays rely on reduction of a dye to a coloured formazan, in cell work by metabolically active cells.

In assay [1] the target is T1, purified human topoisomerase I (Homo sapiens, UniProt P11387).
T1 construct: purchased Topogen
T1 sequence (P11387 1-765): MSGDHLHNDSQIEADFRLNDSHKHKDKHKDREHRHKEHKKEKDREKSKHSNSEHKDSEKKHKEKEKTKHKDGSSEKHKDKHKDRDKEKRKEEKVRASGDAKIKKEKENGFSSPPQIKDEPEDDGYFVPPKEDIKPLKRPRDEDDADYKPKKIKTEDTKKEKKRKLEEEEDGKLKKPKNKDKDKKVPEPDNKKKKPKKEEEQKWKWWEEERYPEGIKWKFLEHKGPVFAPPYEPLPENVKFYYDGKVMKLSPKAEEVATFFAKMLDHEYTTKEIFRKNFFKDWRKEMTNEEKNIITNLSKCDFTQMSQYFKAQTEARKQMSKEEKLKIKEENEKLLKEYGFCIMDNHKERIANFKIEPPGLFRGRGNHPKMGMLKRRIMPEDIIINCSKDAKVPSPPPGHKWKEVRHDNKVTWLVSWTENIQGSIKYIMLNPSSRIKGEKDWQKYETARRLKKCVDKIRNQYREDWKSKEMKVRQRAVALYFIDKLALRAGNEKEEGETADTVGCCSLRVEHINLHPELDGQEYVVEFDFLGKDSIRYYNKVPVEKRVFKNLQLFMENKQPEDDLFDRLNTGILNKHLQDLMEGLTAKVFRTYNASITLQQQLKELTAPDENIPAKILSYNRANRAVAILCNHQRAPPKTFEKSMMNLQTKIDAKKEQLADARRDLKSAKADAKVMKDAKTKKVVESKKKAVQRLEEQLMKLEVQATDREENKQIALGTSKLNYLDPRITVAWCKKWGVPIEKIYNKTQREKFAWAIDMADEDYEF
Nature of the assay: Topoisomerase I activity (in vitro): compound-induced, topoisomerase I-mediated single strand breaks in PM2 DNA. The assay is classed as biochemical. Conditions: 30 minutes at 37° C., agarose gel densitometry, read-out: EC50 (median effective concentration for inducing topoisomerase I-mediated single strand breaks in DNA). How it is done:
Topoisomerase I Activity (In Vitro)
Topoisomerase I activity was measured as described below: The procedure for assaying compound-induced, topoisomerase I-mediated single strand breaks in DNA was essentially that described by Hsiang, et al., (J. Biol Chem. 1985, 260, 14873-14878). Samples dissolved in 100% DMSO as either 10 μM or 10 mg/ml solutions, unless otherwise stated, were diluted in Tris-EDTA buffer. Marine bacteriophage PM2 DNA (Boehringer Mannheim) was also diluted in Tris-EDTA buffer to a concentration of 0.02 μg/μl. Different dilutions of the compound being evaluated were mixed with diluted DNA and this mixture was added to 1000 unit (one unit of enzyme activity is defined as the amount capable of relaxing 100 ng of supercoiled DNA in approximately 30 minutes at 37° C.) aliquots of purified human topoisomerase I (Topogen) in 2× reaction buffer to start the reaction. The compound-DNA-enzyme mixture was incubated for 30 minutes at 37° C. before stopping the reaction with warm stop buffer containing sodium dodecyl sulfate and proteinase K (Sigma). These mixtures were allowed to incubate at 37° C. for another 10 minutes, at which time the mixtures were removed from the waterbath and extracted with a 24:1 mixture of chloroform/isoamyl alcohol. Following centrifugation, aliquots of the aqueous phases were placed in wells of a 0.9% agarose (SeaKem) gel in Tris-borate buffer containing 0.5 μg/ml of ethidium bromide and subjected to electrophoresis for 15 hours to separate the different topological isomers and nicked and broken DNAs. After destaining the gel in water, the ethidium bromide stained DNA reaction products were visualized by exposing the gel to UV irradiation. Negatives of the photographs of the irradiated gels were scanned with a densitometer and areas under the peaks were calculated in order to obtain percent single strand DNA break formation for each sample. A median effective concentration (EC50) was obtained for each compound by interpolation between points of the resulting dose-effect curve which defines the potency of the compound for its effect in inducing topoisomerase I-mediated single strand breaks in DNA.
The topoisomerase I activity for certain compounds of the present invention is shown below in Table I.

Where two headings read alike, the source gives them in different places. A value given as a limit tells only on which side of the number the result lay.

As for `O=C1NC(=O)c2c1c1c3cc(F)c(F)cc3n3c1c1c2c2cc(F)c(F)cc2n1C1OC(C3)C(O)C(F)C1O` [Example 6, 2,3,9,10-Tetrafluoro-12,13-[1,6-(3-deoxy-3-fluoro-β-D-glucopyranosyl)]-6,7,12,13-tetrahydro(5H)indolo[2,3-a]pyrrolo[3,4-c]carbazole-5,7-dione], in the assay with murine P388 cell line (Mus musculus), the IC50 was 7700 nM. In addition, in assay [1], the EC50 was over 100000 nM.

Turning to `C[C@]12O[C@H]([C@H](O)[C@@H](O)[C@@H]1O)n1c3cc(F)c(F)cc3c3c4c(c5c6cc(F)c(F)cc6n2c5c31)C(=O)NC4=O` [Example 21], the IC50 in the assay with murine P388 cell line (Mus musculus) was found to be 140 nM. Moreover, in assay [1], the EC50 is 290 nM.

For the compound “2,3,9,10-Tetrafluoro-12,13-[1,5-(6-deoxy-β-D-glucopyranosyl)]-6,7,12,13-tetrahydro(5H)indolo[2,3-a]pyrrolo[3,4-c]carbazole-5-one and 2,3,9,10-Tetrafluoro-12,13-[1,5-(6-deoxy-β-D-glucopyranosyl)]-6,7,12,13-tetrahydro(5H)-indolo[2,3-a]pyrrolo[3,4-c]carbazole-7-one [Example 23]”, the IC50 in the assay on murine P388 cell line stood at 240 nM. Also, in assay [1], the EC50 was found to be 2100 nM.

For the compound `COC1C2Cn3c4c(Cl)cccc4c4c5c(c6c7cccc(Cl)c7n(c6c43)C(O2)C(O)C1O)C(=O)NC5=O` [Example 7, 1,11-Dichloro-12,13-[1,6-(4-O-methyl-β-D-glucopyranosyl)]-6,7,12,13-tetrahydro(5H)indolo[2,3-a]pyrrolo[3,4-c]carbazole-5,7-dione], the IC50 in the assay on murine P388 cell line (Mus musculus) was determined as 460 nM. For the same compound, the EC50 in assay [1] was over 100000 nM.

As to `O=C1NC(=O)c2c1c1c3cc(F)ccc3n3c1c1c2c2cc(F)ccc2n1[C@@H]1O[C@H](CO)[C@@H](O)[C@H](O)[C@@H]13` [Example 28, 3,9-Difluoro-12,13-[1,2-β-D-glucopyranosyl]-6,7,12,13-tetrahydro(5H)-indolo-[2,3-a]pyrrolo[3,4-c]carbazole-5,7-dione], in the assay on murine P388 cell line (Mus musculus), the IC50 was 347 nM. In addition, in assay [1], the EC50 came out at 120 nM.

In the case of `O=C1NC(=O)c2c1c1c3cc(F)c(F)cc3n3c1c1c2c2cc(F)c(F)cc2n1[C@@H]1OC(CO)[C@H]3C(O)C1O` (stereo partly drawn) [Example 13, 2,3,9,10-Tetrafluoro-12,13-(1,4-β-D-galactopyranosyl)-6,7,12,13-tetrahydro(5H)indolo[2,3-a]pyrrolo[3,4-c]carbazole-5,7-dione], the IC50 in the assay with murine P388 cell line (Mus musculus) was 2800 nM. Besides, the EC50 in assay [1] came to 8200 nM.

As to `O=C1NC(=O)c2c1c1c3cc(F)ccc3n3c1c1c2c2cc(F)ccc2n1C1OC(C3)C(F)C(O)C1O` [Example 26, 3,9-Difluoro-12,13-[1,6-(4-deoxy-4-fluoro-β-D-glucopyranosyl)]-6,7,12,13-tetrahydro(5H)indolo[2,3-a]pyrrolo[3,4-c]carbazole-5,7-dione], the IC50 in the assay with murine P388 cell line (Mus musculus) was 3 nM. Besides, in assay [1], the EC50 was determined as 28 nM.

Consider `O=C1NC(=O)c2c1c1c3cc(F)ccc3n3c1c1c2c2cc(F)ccc2n1[C@@H]1O[C@H](CO)[C@H](O)[C@H](O)[C@@H]13` [Example 25, 3,9-Difluoro-12,13-[1,2-β-D-galactopyranosyl]-6,7,12,13-tetrahydro(5H)-indolo-[2,3-a]pyrrolo[3,4-c]carbazole-5,7-dione], for which, in the assay on murine P388 cell line (Mus musculus), the IC50 was determined as 14.2 nM. In assay [1], the EC50 was determined as 110 nM.

`O=C1NC(=O)c2c1c1c3cc(F)c(F)cc3n3c1c1c2c2cc(F)c(F)cc2n1C1OC(C3)C(O)C(O)C1O` [Example 3, 2,3,9,10-Tetrafluoro-12,13-(1,6-β-D-glucopyranosyl)-6,7,12,13-tetrahydro(5H)indolo[2,3-a]pyrrolo[3,4-c]carbazole-5,7-dione]: the IC50 in the assay with murine P388 cell line (Mus musculus) is 50 nM. Moreover, the EC50 in assay [1] worked out at 350 nM.

In the case of `O=C1NC(=O)c2c1c1c3cc(F)c(F)cc3n3c1c1c2c2cc(F)c(F)cc2n1C1OC(C3)C(F)(F)C(O)C1O` [Example 9, 2,3,9,10-Tetrafluoro-12,13-[1,6-(4-deoxy-4,4-difluoro-β-D-glucopyranosyl)]-6,7,12,13-tetrahydro(5H)indolo[2,3-a]pyrrolo[3,4-c]carbazole-5,7-dione], the IC50 in the assay with murine P388 cell line (Mus musculus) amounted to 21 nM. Further, the EC50 in assay [1] was over 100000 nM.
